Measured values reported in US20240315993A1, “ANTIPARASITIC COMPOUNDS” (Intervet Inc., priority 2021, published 2024).

Tests used:
Lepeophtheirus salmonis = assay: Salmon - in vivo efficacy against sea lice using gavage administration; settings: 5 mg/kg once by gavage; for therapeutic efficacy against juvenile sea lice (% reduction vs control): day -3 infestation; for therapeutic efficacy against juvenile sea lice (% reduction vs control) / prophylactic efficacy at re-infestation on Day 17 (% reduction vs control): counted around day 28; for therapeutic efficacy against (pre-)adult sea lice (% reduction vs control): day -28 infestation, counted day 7
Protocol: Salmon (Salmo solar) were treated once orally by gavage at a dose of 5 mg/kg bodyweight per fish (Day 0). As formulation DMSO 5%/fish oil 95% was used. Salmon of the negative control group received only the excipients of the formulation.
The fish were infested with Lepeophtheirus salmonis copepodids twice before treatment (i.e., around day −28 and day −3) and once after treatment (i.e., day 17).
Around day 28 (end of animal phase), fish were euthanized, and lice on each fish were classified ((pre-)adult or juvenile stage) and counted. […] Efficacy is expressed as a % reduction of sea lice in treated groups versus a control group, using the Abbott's formula.

[1] = tested on: Copepodids (juvenile sea lice stage of Lepeophtheirus salmonis); assay: Juvenile sea lice contact assay; settings: 1 nM in seawater; ~24 h
Protocol: Copepodids (juvenile sea lice stage of Lepeophtheirus salmonis) were exposed to seawater spiked with declining concentrations of a test compound (dissolved in a DMSO sea-water mixture). Sea lice inhibition (% of dead+damaged copepodids) was assessed after approximately 24 hours of continuous exposure. The vitality of used parasites was confirmed in a negative (solvent) control group.

[2] = tested on: Cabbage Looper (Trichoplusia ni); settings: 128-well diet tray, average of eight wells, cited from earlier work; for Test B: Bioassay on CL, percent mortality rating: Cabbage Looper second instar larvae, 50 μg/cm^2, five to seven days; for Test B: percent mortality of Cabbage Looper (CL) larvae, rating: 50 μg/cm^2 on artificial diet, second instar larvae, 5-7 days
[3] = tested on: Beet Armyworm (Spodoptera exigua); settings: 128-well diet tray, average of eight wells, cited from earlier work; for Test A: Bioassay on BAW, percent mortality rating: Beet Armyworm second instar larvae, 50 μg/cm^2, five to seven days; for Test A: percent mortality of Beet Armyworm (BAW) larvae, rating: 50 μg/cm^2 on artificial diet, second instar larvae, 5-7 days
[4] = tested on: Yellow Fever Mosquito (Aedes aegypti); settings: 96-well plate, cited from earlier work; for Test C: Bioassay on Yellow Fever Mosquito, mortality rating: Aedes aegypti larvae about 1 day old, scored after 3 days; for Test C: mortality of Yellow Fever Mosquito larvae, rating: about 1 day-old larvae, graded after 3 days at room temperature

SMILES | Test B: Bioassay on CL, percent mortality rating [2] | Test A: Bioassay on BAW, percent mortality rating [3] | Test C: Bioassay on Yellow Fever Mosquito, mortality rating [4] | Test B: percent mortality of Cabbage Looper (CL) larvae, rating [2] | Test A: percent mortality of Beet Armyworm (BAW) larvae, rating [3] | Test C: mortality of Yellow Fever Mosquito larvae, rating [4] | other results
Cc1c(F)cc(NC(=O)C2C(c3cc(Cl)cc(Cl)c3)C2(Cl)Cl)cc1C(=O)Nc1ncc(F)cc1F (centres unmarked) [Compound 457] |  |  |  |  |  |  | therapeutic efficacy against juvenile sea lice (% reduction vs control) (Lepeophtheirus salmonis): 100%; therapeutic efficacy against (pre-)adult sea lice (% reduction vs control) (Lepeophtheirus salmonis): 80%
O=C(Nc1c(F)cccc1F)c1cc(NC(=O)C2C(c3cc(Cl)cc(Cl)c3)C2(Cl)Cl)ccc1Cl (centres unmarked) [Compound 458] |  |  |  |  |  |  | prophylactic efficacy at re-infestation on Day 17 (% reduction vs control) (Lepeophtheirus salmonis): 80%; therapeutic efficacy against juvenile sea lice (% reduction vs control) (Lepeophtheirus salmonis): 100%; therapeutic efficacy against (pre-)adult sea lice (% reduction vs control) (Lepeophtheirus salmonis): 100%
O=C(Nc1ncc(F)cc1F)c1cc(NC(=O)C2C(c3cc(Cl)cc(Cl)c3)C2(Cl)Cl)ccc1F (centres unmarked) [Compound 463] |  |  |  |  |  |  | Sea lice inhibition (% of dead+damaged copepodids) [1]: 100%; therapeutic efficacy against juvenile sea lice (% reduction vs control) (Lepeophtheirus salmonis): 100%; therapeutic efficacy against (pre-)adult sea lice (% reduction vs control) (Lepeophtheirus salmonis): 100%
O=C(Nc1ncc(F)cc1F)c1cc(NC(=O)C2C(c3cc(Cl)cc(Cl)c3)C2(Cl)Cl)cc(F)c1Cl (centres unmarked) [Compound 464] |  |  |  |  |  |  | prophylactic efficacy at re-infestation on Day 17 (% reduction vs control) (Lepeophtheirus salmonis): 100%; therapeutic efficacy against juvenile sea lice (% reduction vs control) (Lepeophtheirus salmonis): 100%; therapeutic efficacy against (pre-)adult sea lice (% reduction vs control) (Lepeophtheirus salmonis): 100%
O=C(Nc1ncc(F)cc1F)c1cc(NC(=O)C2C(c3cc(F)c(F)c(F)c3)C2(Cl)Cl)ccc1Cl (centres unmarked) [Compound 478] |  |  |  |  |  |  | therapeutic efficacy against juvenile sea lice (% reduction vs control) (Lepeophtheirus salmonis): 80%; therapeutic efficacy against (pre-)adult sea lice (% reduction vs control) (Lepeophtheirus salmonis): 100%
O=C(Nc1ncc(F)cc1F)c1cc(NC(=O)C2C(c3cc(F)c(F)c(F)c3)C2(Cl)Cl)ccc1F (centres unmarked) [Compound 479] |  |  |  |  |  |  | therapeutic efficacy against juvenile sea lice (% reduction vs control) (Lepeophtheirus salmonis): 80%; therapeutic efficacy against (pre-)adult sea lice (% reduction vs control) (Lepeophtheirus salmonis): 100%
O=C(Nc1ncc(F)cc1F)c1c(F)ccc(NC(=O)C2C(c3cc(Cl)cc(Cl)c3)C2(Cl)Cl)c1F (centres unmarked) [Compound 480] |  |  |  |  |  |  | therapeutic efficacy against juvenile sea lice (% reduction vs control) (Lepeophtheirus salmonis): 100%; therapeutic efficacy against (pre-)adult sea lice (% reduction vs control) (Lepeophtheirus salmonis): 100%
O=C(Nc1cncc([N+](=O)[O-])c1)c1cc(NC(=O)C2C(c3cc(Cl)cc(Cl)c3)C2(Cl)Cl)ccc1Cl (centres unmarked) [c106] | A (50-100) | A (50-100) | A (80-100) |  |  |  | 
O=C(Nc1cncc([N+](=O)[O-])c1)c1cc(NC(=O)C2C(c3ccc(Cl)c(Cl)c3)C2(Cl)Cl)ccc1Cl (centres unmarked) [c107] | A (50-100) | A (50-100) | A (80-100) |  |  |  | 
O=C(Nc1cncc(NO)c1)c1cc(NC(=O)C2C(c3cc(Cl)cc(Cl)c3)C2(Cl)Cl)ccc1Cl (centres unmarked) [c108] | A (50-100) | A (50-100) | A (80-100) |  |  |  | 
Nc1cncc(NC(=O)c2cc(NC(=O)C3C(c4cc(Cl)cc(Cl)c4)C3(Cl)Cl)ccc2Cl)c1 (centres unmarked) [c109] | A (50-100) | A (50-100) | A (80-100) |  |  |  | 
O=C(Nc1cncc(NO)c1)c1cc(NC(=O)C2C(c3ccc(Cl)c(Cl)c3)C2(Cl)Cl)ccc1Cl (centres unmarked) [c110] | A (50-100) | A (50-100) | A (80-100) |  |  |  | 
Nc1cncc(NC(=O)c2cc(NC(=O)C3C(c4ccc(Cl)c(Cl)c4)C3(Cl)Cl)ccc2Cl)c1 (centres unmarked) [c111] | A (50-100) | A (50-100) | A (80-100) |  |  |  | 
Cn1ccc2c(NC(=O)c3cc(NC(=O)C4C(c5cc(Cl)cc(Cl)c5)C4(Cl)Cl)ccc3Cl)cccc21 (centres unmarked) [c112] | A (50-100) | A (50-100) | A (80-100) |  |  |  | 
Cn1ccc2cccc(NC(=O)c3cc(NC(=O)C4C(c5cc(Cl)cc(Cl)c5)C4(Cl)Cl)ccc3Cl)c21 (centres unmarked) [c113] | A (50-100) | A (50-100) | A (80-100) |  |  |  | 
Cc1cc(N)ccc1NC(=O)c1cc(NC(=O)C2C(c3ccc(Cl)c(Cl)c3)C2(Cl)Cl)ccc1Cl (centres unmarked) [c114] | A (50-100) | A (50-100) | A (80-100) |  |  |  | 
COCC(=O)N(C)c1ccc(NC(=O)c2cc(NC(=O)C3C(c4cc(Cl)cc(Cl)c4)C3(Cl)Cl)ccc2Cl)cc1 (centres unmarked) [c115] |  |  |  | A (50-100) | A (50-100) | B (More than 0 - Less than 80) | 
CNc1ccc(NC(=O)c2cc(NC(=O)C3C(c4cc(Cl)cc(Cl)c4)C3(Cl)Cl)ccc2Cl)cc1C (centres unmarked) [c116] |  |  |  | A (50-100) | A (50-100) | A (80-100) | 
CC(=O)Nc1ccc(NC(=O)c2cc(NC(=O)C3C(c4ccc(F)c(Cl)c4)C3(Cl)Cl)ccc2Cl)cc1 (centres unmarked) [c117] |  |  |  | A (50-100) | A (50-100) | A (80-100) | 
CC(=O)Nc1ccc(NC(=O)c2cc(NC(=O)[C@H]3[C@H](c4ccc(F)c(Cl)c4)C3(Cl)Cl)cc(Cl)c2C)cc1 [c118] |  |  |  | A (50-100) | A (50-100) | A (80-100) | 
O=C(Nc1ccccc1)c1cc(NC(=O)[C@H]2[C@H](c3ccc(F)c(Cl)c3)C2(Cl)Cl)cc(C(F)(F)F)c1Cl [c121] |  |  |  | A (50-100) | A (50-100) | A (80-100) | 
O=C(Nc1ccccc1)c1c(Cl)ccc(NC(=O)[C@H]2[C@H](c3ccc(F)c(Cl)c3)C2(Cl)Cl)c1Cl [c122] |  |  |  | A (50-100) | A (50-100) | A (80-100) | 
Cc1c(N)ccc(NC(=O)c2cc(NC(=O)C3C(c4ccc(F)c(C(F)(F)F)c4)C3(Cl)Cl)ccc2Cl)c1C (centres unmarked) [c123] |  |  |  | A (50-100) | A (50-100) | A (80-100) | 
Cc1c(NC(=O)c2cc(NC(=O)C3C(c4ccc(F)c(C(F)(F)F)c4)C3(Cl)Cl)ccc2Cl)ccc(NC(=O)C(F)(F)F)c1C (centres unmarked) [c124] |  |  |  | A (50-100) | A (50-100) | A (80-100) | 
Cc1c(NC(=O)c2cc(NC(=O)C3C(c4ccc(F)c(C(F)(F)F)c4)C3(Cl)Cl)ccc2Cl)cccc1NC(=O)C(F)(F)F (centres unmarked) [c125] |  |  |  | A (50-100) | A (50-100) | A (80-100) | 
